Reference: US8748632B2, “Positive allosteric modulators of group II mGluRs” (Sanford-Burnham Medical Research Institute, priority 2010, dated 2014)

Molecular target: mGluR2 (Rattus norvegicus, UniProt P31421)
Experiment: mGluR2 PAM (positive allosteric modulator) EC50
Format: cell-based
Details: positive allosteric modulator activity

mGluR2, sequence (P31421 19-872): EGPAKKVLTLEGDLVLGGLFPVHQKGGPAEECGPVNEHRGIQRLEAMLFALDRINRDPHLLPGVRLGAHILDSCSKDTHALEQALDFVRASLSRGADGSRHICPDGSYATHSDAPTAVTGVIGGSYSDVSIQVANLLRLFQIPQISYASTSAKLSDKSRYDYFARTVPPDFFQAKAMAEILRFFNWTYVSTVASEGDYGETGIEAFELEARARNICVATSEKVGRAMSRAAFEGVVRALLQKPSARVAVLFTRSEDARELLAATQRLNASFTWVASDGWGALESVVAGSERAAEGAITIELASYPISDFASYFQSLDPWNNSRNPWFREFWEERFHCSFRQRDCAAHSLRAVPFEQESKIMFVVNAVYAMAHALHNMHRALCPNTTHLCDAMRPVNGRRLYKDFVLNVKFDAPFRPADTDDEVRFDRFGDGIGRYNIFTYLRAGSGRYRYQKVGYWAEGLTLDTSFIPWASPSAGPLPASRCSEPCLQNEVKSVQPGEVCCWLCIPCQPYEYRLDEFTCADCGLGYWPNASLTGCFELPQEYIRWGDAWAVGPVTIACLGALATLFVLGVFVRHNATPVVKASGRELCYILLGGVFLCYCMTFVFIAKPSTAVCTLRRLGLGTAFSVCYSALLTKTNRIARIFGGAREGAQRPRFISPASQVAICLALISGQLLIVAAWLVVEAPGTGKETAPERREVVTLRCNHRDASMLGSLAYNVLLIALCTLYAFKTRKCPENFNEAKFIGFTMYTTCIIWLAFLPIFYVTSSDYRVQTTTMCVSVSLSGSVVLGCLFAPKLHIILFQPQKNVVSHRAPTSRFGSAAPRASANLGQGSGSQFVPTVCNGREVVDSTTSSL

Structure (SMILES): O=C(O)c1cc(-c2cccc(COc3ccc4c(=O)n(C5CCCCC5)oc4c3)c2)ccc1Cl [Example 61, 4-Chloro-3′-((2-cyclohexyl-3-oxo-2,3-dihydrobenzo[d]isoxazol-6-yloxy)methyl)biphenyl-3-carboxylic acid]
- mGluR2 PAM EC50(μM): desensitizes
